Laboratory results as given in US20260022143A1, “Cyclic Peptide Inhibitors of IL-23” (JANSSEN PHARMACEUTICA NV, priority 2022, published 2026).
Where a name gives a salt, the structure may show the parent alone. Starred links: 1 amine or outer side, 2 acyl side, 3 side chain; linkers in the order of their positions; H or OH if unused. Positions of bridges follow the written chain, without caps; N, C: chain ends. Non-standard residues stand in square brackets, D forms with d. Residues, ends and D or L forms follow the SMILES beside them. Groups on a side chain read outwards from the residue. *: point of attachment. Trp(7-(3-AcNH-Ph)) = CC(=O)Nc1cccc(-c2cccc3c(C[C@H](N)C(=O)O)c[nH]c23)c1; X68 = COCCOCCOCCOCCOCCOCCC(=O)N(CCCC[C@@H](N[*:1])C(=O)[*:2])C(C)=O; Me3N+(CH2)2O(CH2)2O(CH2)2CO = C[N+](C)(C)CCOCCOCCC(=O)*; Trp(7-Me) = Cc1cccc2c(C[C@H](N)C(=O)O)c[nH]c12; dLys(Me3) = C[N+](C)(C)CCCC[C@@H](N)C(=O)O; 3Pal(5-Me) = Cc1cncc(C[C@H](N)C(=O)O)c1; Pro(4,4-F2) = O=C(O)[C@@H]1CC(F)(F)CN1; γGlu = O=C(O)[C@H](CCC(=O)[*:2])N[*:1]; 2Nal = N[C@@H](Cc1ccc2ccccc2c1)C(=O)O; AEF = NCCOc1ccc(C[C@H](N)C(=O)O)cc1; dNMeY = CN[C@H](Cc1ccc(O)cc1)C(=O)O; 3Pal = N[C@@H](Cc1cccnc1)C(=O)O; Lys(Me) = CNCCCC[C@H](N)C(=O)O; NMeK = CN[C@@H](CCCCN)C(=O)O; Pen = CC(C)(S)[C@H](N)C(=O)O; αMeK = C[C@](N)(CCCCN)C(=O)O; Lauroyl = CCCCCCCCCCCC(=O)*; Thp = NC1(C(=O)O)CCOCC1; X3 = C[N+](C)(C)CCCCC*; AEEA = NCCOCCOCC(=O)O; Tfa = O=C(C(F)(F)F)*; Sar = CNCC(=O)O

Experiment: Exposed Polar Surface Area (EPSA)
Type: physicochemical
Conditions: SFC on Chirex 3014 column; sample 1 mM DMSO stock; read-out: EPSA
Excerpt: Exposed Polar Surface Area (EPSA) is an experimental descriptor of molecular polarity obtained from chromatographic retention in supercritical fluid chromatography (SFC).
The stationary phase (Chirex 3014(S)-valine and (R)-1-(alpha-naphthyl) ethylamine) was selected for its balance of lipophilic and polar attributes and its capacity to separate compounds with wide polarity differences. The mobile phase consists of methanol (+Ammonium formate) and CO2. Polar compounds are retained stronger under these conditions and a low-slope gradient of methanol achieves elution based on increasing polarity of the mobile phase. Results are normalized using calibration standards generating a linear relationship between retention times and EPSA values. The unit of EPSA is Å^2.
Along with the measurement of compounds of interest, a series of 8 calibration standards (see Materials) are analyzed generating a linear relationship between retention times and EPSA value. The 8 compounds used as calibration standard have their own EPSA value defined by G. Goetz based on the comparison with TPSA (see G. Goetz, L. Philippe and M. Shapiro, “EPSA: A novel supercritical fluid chromatography technique enabling the design of permeable cyclic peptides,” ACS Med. Chem. Lett., vol. 5, pp. 1167-1172, 2014 for more information). The slope from the linear relationship between EPSA values of these eight compounds and their retention times is used to determine the EPSA value of each compound of interest that's measured under the same condition using the equation as below: […]
The mixture of calibrations standard is reinjected every 20 compounds to validate the stability of the retention time.
The mobile phase modifier consists of ammonium formate LC_MS grade (>99%) (CAS number 540-69-2) diluted to 20 mM in HPLC grade Methanol (MeOH, CAS number 67-56-1) and liquid C02 SFC grade (CAS number 124-38-9).
Antipyrine (CAS number: 60-80-0) Chlorpromazine hydrochloride (CAS number: 69-09-0), desipramine hydrochloride (CAS number: […]), pindolol (CAS Number: 13523-86-9), diclofenac (CAS number: 15307-79-6)), m-nitro benzoic acid (CAS number: 121-92-6), bumetanide (CAS number: 28395-03-1), furosemide (CAS number: 54-31-9) were purchased from Sigma Aldrich (Steihneim, Germany).
All analyses were performed on a ultra performance convergence chromatography (UPC™) apparatus (Waters, Milford, MA, USA) equipped with a sample manager, a binary solvent delivery pump (BSM), a column manager, a convergence manager (automated back pressure regulator), a photo diode array detector (DAD) with a high pressure flow cell, and a mass detector simple quadrupole QDa. After the UV detector, the effluent of the SFC was mixed with an eluent consist of mixture MeOH/water (+0.3% Ammonia) 95/5 delivered by a make up pump with a flow rate of 0.4 mL/min and then split to the QDa using a splitter. The instrument was controlled, and data were processed with Masslynx 4.1.
The Analyses were performed using a 4.6×50 mm Chirex 3014(S)-valine and (R)-1-(alpha- naphthyl) ethylamine column (Phenomenex, Le Pecq, France) with 5 um particle and 100A pore size. The flow rate was 4 mL/min with the outlet pressure set to 14 MPa. The injection volume was 2 μL. the mobile phase composition was varied from 5% to 60% modifier at 20%/ min in a linear gradient, holding at 60% for 1.45 min and reverting to the original 5% until the end of the run. Data are acquired during 5 min. An equilibration time of 1 min is applied between 2 injections resulting in an injection every 6 min. each sample is analyzed in duplicate, resulting in a sample to sample turnaround time of 12 min.
The column temperature was set to 35° C. The mass detector was used in full scan from 100 to 800 for small molecules and from 500 to 1200 for peptides.
Each sample is delivered by compound logistics from DMSO stock solution without dilution. The concentration is 1 mM and the volume is 60 μL.

With `CC(=O)NCCCC[C@@H]1NC(=O)[C@H](Cc2c[nH]c3c(C)cccc23)NC(=O)[C@H]([C@@H](C)O)NC(=O)[C@H](CC(N)=O)NC(=O)[C@@H](NC(C)=O)C(C)(C)SSC(C)(C)[C@@H](C(=O)N[C@@H](Cc2ccc(OCCN)cc2)C(=O)N[C@@H](Cc2ccc3ccccc3c2)C(=O)N[C@@](C)(CCCCN)C(=O)N[C@@H](CCCCNC(C)=O)C(=O)N[C@@H](CC(N)=O)C(=O)N[C@@H](Cc2c[nH]cn2)C(=O)N(C)[C@H](Cc2ccc(O)cc2)C(N)=O)NC1=O` [compound 8, MeCO-Pen(3)-N-T-7MeW-K(Ac)-Pen(3)-AEF-2Nal-aMeK-K(Ac)-N-H-NMeDTyr-CONH2] (Ac-[Pen]NT[Trp(7-Me)]K(Ac)[Pen][AEF][2Nal][αMeK]K(Ac)NH[dNMeY]-NH2; disulfide 1-6 (inferred)) the EPSA was 169 A^2.
Molecule `CC(=O)NCCCC[C@H](NC(=O)C1(NC(=O)[C@H](Cc2ccc3ccccc3c2)NC(=O)[C@H](Cc2ccc(OCCN)cc2)NC(=O)[C@H]2NC(=O)[C@H](CCC(=O)N(C)C)NC(=O)[C@H](Cc3c[nH]c4c(C)cccc34)NC(=O)[C@H]([C@@H](C)O)NC(=O)[C@H](CC(N)=O)NC(=O)[C@@H](NC(=O)C(F)(F)F)C(C)(C)SSC2(C)C)CCOCC1)C(=O)N[C@@H](CC(N)=O)C(=O)N[C@@H](Cc1cccnc1)C(=O)N(C)CC(N)=O` [compound 61] (Tfa-[Pen]NT[Trp(7-Me)]E(NMe2)[Pen][AEF][2Nal][Thp]K(Ac)N[3Pal][Sar]-NH2; disulfide 1-6 (inferred)) has an EPSA of 159 A^2.
Work on `COCCOCCOCCOCCOCCOCCC(=O)N(CCCC[C@@H](NC(=O)C1(NC(=O)[C@H](Cc2ccc3ccccc3c2)NC(=O)[C@H](Cc2ccc(OCCN)cc2)NC(=O)[C@H]2NC(=O)[C@H](CCCCNC(C)=O)NC(=O)[C@H](Cc3c[nH]c4c(C)cccc34)NC(=O)[C@H]([C@@H](C)O)NC(=O)[C@H](CC(N)=O)NC(=O)[C@@H](NC(C)=O)C(C)(C)SSC2(C)C)CCOCC1)C(=O)N[C@@H](CC(N)=O)C(=O)N[C@@H](Cc1cccnc1)C(=O)N(C)CC(N)=O)C(C)=O` [compound 123] (Ac-[Pen]NT[Trp(7-Me)]K(Ac)[Pen][AEF][2Nal][Thp][X68]N[3Pal][Sar]-NH2; disulfide 1-6) yielded an EPSA of 156 A^2.
In the case of `CC(=O)N(C)CCCC[C@@H]1NC(=O)[C@H](Cc2c[nH]c3c(C)cccc23)NC(=O)[C@H]([C@@H](C)O)NC(=O)[C@H](CC(=O)N(C)C)NC(=O)[C@@H](NC(=O)CCOCCOCC[N+](C)(C)C)C(C)(C)SSC(C)(C)[C@@H](C(=O)N[C@@H](Cc2ccc(OCCCCC[N+](C)(C)C)cc2)C(=O)N[C@@H](Cc2ccc3ccccc3c2)C(=O)NC2(C(=O)N[C@@H](C)C(=O)N[C@@H](CC(N)=O)C(=O)N[C@@H](Cc3cccnc3)C(=O)N(C)CC(=O)N(C)C)CCOCC2)NC1=O` [compound 316, cPEG3aCO-Pen(3)-N(N(Me)2)-T-7MeW-K(NMeAc)-Pen(3)-TMAPF-2Nal-THP-A-N-3Pya-Sar-CON(Me)2] ({Me3N+(CH2)2O(CH2)2O(CH2)2CO}-[Pen]D(NMe2)T[Trp(7-Me)][Lys(Me)](Ac)[Pen]Y(X3)[2Nal][Thp]AN[3Pal][Sar]-NMe2; disulfide 1-6), the EPSA is reported as 154 A^2.
`CC(=O)NCCCC[C@@H]1NC(=O)[C@H](Cc2c[nH]c3c(-c4cccc(NC(C)=O)c4)cccc23)NC(=O)[C@H]([C@@H](C)O)NC(=O)[C@H](CC(N)=O)NC(=O)[C@@H](NC(=O)[C@@H](CCCC[N+](C)(C)C)NC(C)=O)C(C)(C)SSC(C)(C)[C@@H](C(=O)N[C@@H](Cc2ccc(OCCCCC[N+](C)(C)C)cc2)C(=O)N[C@@H](Cc2ccc3ccccc3c2)C(=O)NC2(C(=O)N[C@@H](CCC(=O)O)C(=O)N[C@@H](CC(N)=O)C(=O)N[C@@H](Cc3cncc(C)c3)C(=O)N(C)CC(N)=O)CCOCC2)NC1=O` [compound 513, MeCO-k(Me)3-Pen(3)-N-T-7(3NAcPh)W-K(Ac)-Pen(3)-TMAPF-2Nal-THP-E-N-5MePyridinAla-Sar-CONH2] (Ac-[dLys(Me3)][Pen]NT[Trp(7-(3-AcNH-Ph))]K(Ac)[Pen]Y(X3)[2Nal][Thp]EN[3Pal(5-Me)][Sar]-NH2; disulfide 2-7) gave an EPSA of 224 A^2.
Work on `CC(=O)NCCCC[C@@H]1NC(=O)[C@H](Cc2c[nH]c3c(C)cccc23)NC(=O)[C@H]([C@@H](C)O)NC(=O)[C@H](CC(N)=O)NC(=O)[C@@H](NC(C)=O)C(C)(C)SSC(C)(C)[C@@H](C(=O)N[C@@H](Cc2ccc(OCCN)cc2)C(=O)N[C@@H](Cc2ccc3ccccc3c2)C(=O)N[C@@](C)(CCCCN)C(=O)N[C@@H](CCCCNC(C)=O)C(=O)N[C@@H](CC(N)=O)C(=O)N[C@@H](CC(N)=O)C(=O)N(C)[C@H](Cc2ccc(O)cc2)C(N)=O)NC1=O` [compound 13, MeCO-Pen(3)-N-T-7MeW-K(Ac)-Pen(3)-AEF-2Nal-aMeK-K(Ac)-N-N-NMeDTyr-CONH2] (Ac-[Pen]NT[Trp(7-Me)]K(Ac)[Pen][AEF][2Nal][αMeK]K(Ac)NN[dNMeY]-NH2; disulfide 1-6) yielded an EPSA of 174 A^2.
`CC(=O)NCCCC[C@@H]1NC(=O)[C@H](Cc2c[nH]c3c(C)cccc23)NC(=O)[C@H]([C@@H](C)O)NC(=O)[C@H](CC(N)=O)NC(=O)[C@@H](NC(=O)C(F)(F)F)C(C)(C)SSC(C)(C)[C@@H](C(=O)N[C@@H](Cc2ccc(OCCN)cc2)C(=O)N[C@@H](Cc2ccc3ccccc3c2)C(=O)NC2(C(=O)N[C@@H](CCCCNC(C)=O)C(=O)N[C@@H](CC(N)=O)C(=O)N[C@@H](Cc3cccnc3)C(=O)N3CC(F)(F)C[C@H]3C(=O)N(C)C)CCOCC2)NC1=O` [compound 73] (Tfa-[Pen]NT[Trp(7-Me)]K(Ac)[Pen][AEF][2Nal][Thp]K(Ac)N[3Pal][Pro(4,4-F2)]-NMe2; disulfide 1-6 (inferred)) gave an EPSA of 155 A^2.
`CCCCCCCCCCCC(=O)N[C@@H](CCC(=O)NCCOCCOCC(=O)NCCOCCOCC(=O)NCCCC[C@@H](NC(=O)CCOCCOCC[N+](C)(C)C)C(=O)N[C@@H]1C(=O)N[C@@H](CC(=O)N(C)C)C(=O)N[C@@H]([C@@H](C)O)C(=O)N[C@@H](Cc2c[nH]c3c(C)cccc23)C(=O)N[C@@H](CCCCNC(C)=O)C(=O)N[C@H](C(=O)N[C@@H](Cc2ccc(OCCCCC[N+](C)(C)C)cc2)C(=O)N[C@@H](Cc2ccc3ccccc3c2)C(=O)NC2(C(=O)N[C@@H](CCCCN(C)C(C)=O)C(=O)N[C@@H](CC(N)=O)C(=O)N[C@@H](Cc3cccnc3)C(=O)N(C)[C@@H](CCCCNC(=O)COCCOCCNC(=O)COCCOCCNC(=O)CC[C@H](NC(=O)CCCCCCCCCCC)C(=O)O)C(N)=O)CCOCC2)C(C)(C)SSC1(C)C)C(=O)O` [compound 348, cPEG3aCO-k(PEG2PEG2gEC12)-Pen(3)-N(N(Me)2)-T-7MeW-K(Ac)-Pen(3)-TMAPF-2Nal-THP-K(NMeac)-N-3Pya-NMeK(PEG2PEG2gEC12)-CONH2] ({Me3N+(CH2)2O(CH2)2O(CH2)2CO}-[dK]([AEEA-AEEA-γGlu-Lauroyl])[Pen]D(NMe2)T[Trp(7-Me)]K(Ac)[Pen]Y(X3)[2Nal][Thp][Lys(Me)](Ac)N[3Pal][NMeK]([AEEA-AEEA-γGlu-Lauroyl])-NH2; disulfide 2-7) gave an EPSA of 184 A^2.
With `CC(=O)NCCCC[C@@H]1NC(=O)[C@H](Cc2c[nH]c3c(C)cccc23)NC(=O)[C@H]([C@@H](C)O)NC(=O)[C@H](CC(N)=O)NC(=O)[C@@H](NC(=O)[C@@H](CCCC[N+](C)(C)C)NC(C)=O)C(C)(C)SSC(C)(C)[C@@H](C(=O)N[C@@H](Cc2ccc(OCCCCC[N+](C)(C)C)cc2)C(=O)N[C@@H](Cc2ccc3ccccc3c2)C(=O)NC2(C(=O)N[C@@H](CCC(=O)O)C(=O)N[C@@H](CC(N)=O)C(=O)N[C@@H](Cc3cccnc3)C(=O)N(C)CC(N)=O)CCOCC2)NC1=O` [compound 446, MeCO-k(Me)3-Pen(3)-N-T-7MeW-K(Ac)-Pen(3)-TMAPF-2Nal-THP-E-N-3Pya-Sar-CONH2] (Ac-[dLys(Me3)][Pen]NT[Trp(7-Me)]K(Ac)[Pen]Y(X3)[2Nal][Thp]EN[3Pal][Sar]-NH2; disulfide 2-7) the EPSA was 173 A^2.
